In paper PMC8467814, “RSK1 vs. RSK2 Inhibitory Activity of the Marine β-Carboline Alkaloid Manzamine A: A Biochemical, Cervical Cancer Protein Expression, and Computational Study” (Marine Drugs, 2021) one finds IC50 data, which are given here for one compound.

pIC50: −log10 of the molar value.

In general, pIC50 refers to the negative decadic logarithm of the IC50, by convention in mol/L. A low value points to a high IC50.

The target of experiment [1] is T1, RSK1 (90 kDa ribosomal protein S6 kinase 1; MAPKAP-K1α) (Rattus norvegicus, UniProt Q63531).
T1 construct: gene Rps6ka1
T1 sequence (Q63531 whole entry): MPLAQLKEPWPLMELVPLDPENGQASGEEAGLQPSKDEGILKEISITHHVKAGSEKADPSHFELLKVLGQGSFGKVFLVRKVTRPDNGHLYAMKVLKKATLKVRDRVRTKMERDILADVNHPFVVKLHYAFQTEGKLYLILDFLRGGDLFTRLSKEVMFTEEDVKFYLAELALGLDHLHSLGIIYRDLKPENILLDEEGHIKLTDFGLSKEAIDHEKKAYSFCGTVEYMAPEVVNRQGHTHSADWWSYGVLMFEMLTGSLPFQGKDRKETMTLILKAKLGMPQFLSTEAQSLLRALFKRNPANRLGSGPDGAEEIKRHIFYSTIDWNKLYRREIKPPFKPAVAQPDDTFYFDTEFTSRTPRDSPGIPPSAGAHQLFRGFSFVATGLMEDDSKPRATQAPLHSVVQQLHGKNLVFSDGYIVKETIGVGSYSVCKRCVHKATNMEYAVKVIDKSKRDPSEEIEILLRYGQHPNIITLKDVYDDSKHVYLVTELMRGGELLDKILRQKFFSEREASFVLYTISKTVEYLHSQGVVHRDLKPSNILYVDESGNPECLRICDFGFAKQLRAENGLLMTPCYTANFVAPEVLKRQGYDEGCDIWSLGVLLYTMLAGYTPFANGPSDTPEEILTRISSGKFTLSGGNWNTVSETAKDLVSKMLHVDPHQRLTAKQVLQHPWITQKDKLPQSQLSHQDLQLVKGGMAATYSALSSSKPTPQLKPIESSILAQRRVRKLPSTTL
Put plainly: radiometric […]-ATP kinase assay with KKLNRTLSVA peptide, P81 filter; also […] inhibition at […] in kinase panel. The experiment is classed as biochemical.

In experiment [2] the target is T2, RSK2 (90 kDa ribosomal protein S6 kinase 2) (Homo sapiens, UniProt P51812).
T2 construct: gene RPS6KA3
T2 sequence (P51812 whole entry): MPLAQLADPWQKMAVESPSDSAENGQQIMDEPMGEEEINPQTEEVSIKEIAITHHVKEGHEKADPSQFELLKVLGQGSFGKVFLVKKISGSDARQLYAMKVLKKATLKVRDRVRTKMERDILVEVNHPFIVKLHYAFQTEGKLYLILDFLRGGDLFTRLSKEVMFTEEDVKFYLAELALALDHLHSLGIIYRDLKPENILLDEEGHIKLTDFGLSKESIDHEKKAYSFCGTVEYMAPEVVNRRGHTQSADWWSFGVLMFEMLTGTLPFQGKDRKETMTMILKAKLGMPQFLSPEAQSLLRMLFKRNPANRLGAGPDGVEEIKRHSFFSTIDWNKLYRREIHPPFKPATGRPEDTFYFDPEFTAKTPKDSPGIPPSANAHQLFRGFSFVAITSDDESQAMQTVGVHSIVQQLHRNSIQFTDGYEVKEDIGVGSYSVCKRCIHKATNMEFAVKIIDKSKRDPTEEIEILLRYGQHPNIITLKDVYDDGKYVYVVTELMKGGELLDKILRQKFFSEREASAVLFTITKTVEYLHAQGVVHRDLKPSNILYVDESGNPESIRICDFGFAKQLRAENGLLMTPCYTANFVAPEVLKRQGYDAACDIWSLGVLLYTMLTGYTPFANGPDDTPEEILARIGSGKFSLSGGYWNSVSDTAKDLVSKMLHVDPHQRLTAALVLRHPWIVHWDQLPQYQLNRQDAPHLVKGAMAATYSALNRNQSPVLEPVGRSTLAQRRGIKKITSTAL
Put plainly: radiometric […]-ATP kinase assay with KKLNRTLSVA peptide, P81 filter. Type of experiment: biochemical.

On to `O[C@]12C=C(c3nccc4c3[nH]c3ccccc34)[C@@H]3CCN(CCCC/C=C\CC1)C[C@@]31C[C@@H]3/C=C\CCCCN3[C@H]12` [MZA, Manzamine A], for which the pIC50 is 4.82 in experiment [1] and 3.96 in experiment [2].
